The values below come from patent US20090088473A1, “METHOD FOR SCREENING OF PROSTAGLANDIN COMPOUNDS COMPRISING AN OPTIMAL FORMULATION FOR THE ENHANCEMENT OF HAIR GROWTH AND THE STIMULATION OF FOLLICULAR ANAGEN AND FORMULATIONS RESULTING THEREFROM” (CAYMAN CHEMICAL COMPANY, priority 2007, published 2009).

This assay deals with T1, human FP receptor (Homo sapiens, UniProt P43088).
T1 construct: expressed in transfected cells; host or cells: HEK 293 (stably transfected)
Put plainly: Total intracellular inositol phosphate (InsP) accumulation in HEK 293 cells stably transfected with the human FP receptor. Format: cell-based. The conditions noted are these: FIG. 2; HEK 293 cells stably transfected with human FP receptor; free acid forms; rank among the prostaglandin analogs tested. The text has this: An exemplary assay method may be described that correlates the ability of test compounds (FP receptor agonists) to induce hair growth with the ability of an established FP receptor agonist, in this case Bimatoprost free acid, to activate the FP receptor. The dose-dependent release of Inositol triphosphate by test compounds compared to the dose-dependent response of Bimatoprost free acid, an established eye lash-enhancing compound, may provide a structure activity relationship that may be used to predict the degree to which a given compound will promote eye lash growth.

Each structure is given as a SMILES string.

T1 sequence (P43088 whole entry): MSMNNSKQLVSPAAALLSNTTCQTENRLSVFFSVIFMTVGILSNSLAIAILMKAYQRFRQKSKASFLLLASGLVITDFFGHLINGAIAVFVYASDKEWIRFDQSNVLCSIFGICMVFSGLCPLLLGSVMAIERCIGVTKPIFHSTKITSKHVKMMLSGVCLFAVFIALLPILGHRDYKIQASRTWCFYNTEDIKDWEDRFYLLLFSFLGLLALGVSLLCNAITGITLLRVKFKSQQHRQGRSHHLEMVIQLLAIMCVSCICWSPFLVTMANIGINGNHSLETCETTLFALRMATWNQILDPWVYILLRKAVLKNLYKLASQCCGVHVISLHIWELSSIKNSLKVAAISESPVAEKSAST

Turning to `O=C(O)CCC/C=C\C[C@@H]1[C@@H](/C=C/[C@@H](O)COc2cccc(C(F)(F)F)c2)[C@H](O)C[C@@H]1O` [(+) fluprestonol], the “dose-dependent release of inositol triphosphate” value is “lowest”.

Regarding `O=C(O)CCCC=CCC1C(O)CC(O)C1C=CC(O)COc1ccccc1` (stereo not drawn) [16-phenoxy tetranor PGF2α analog, 16-phenoxy tetranor PGF2α], the “dose-dependent release of inositol triphosphate” value is on record as “highest”.
